US20180071280A1, “MODULATORS OF CELL DEATH PROCESSES” (URIFER LTD., priority 2015, published 2018)
Where a name gives a salt, the structure may show the parent alone.

How the values were obtained:
[1] = tested on: Electron Transport Chain (ETC) complex I; test: ETC Complex I activity assay in SW620 cells; format: cell-based, human
Description: SW620 cells were treated with 0260 for 4-22 h and the Complex I activity was determined for each period on incubation using the Complex I Enzyme Activity Microplate Assay Kit (Colorimetric) according to the manufacturer's instructions (ab109721).

mice sperm cells = test: Sperm cell motility assay (CASA); format: cell-based; settings: 2 μM
Description: For isolation of spermatogenic cells, mice testes were removed from out-bred (ICR) mice and digested in Isolation Medium (DMEM with 2 mM glutamine, 1.5 mM sodium pyruvate, 10% fetal calf serum, 25 μg/ml ampicillin and 1× non-essential amino acids) with added 2 mg/ml collagenase (Sigma-Aldrich) for 5 min at 37° C., and washed twice. Extracellular DNA and proteins were removed with 1 unit/ml DNAse and 0.3 ml 0.5% trypsin at 37° C. for 5 min. Cells were filtered through a nylon mesh with 50 μm pores and incubated in Isolation Medium with 0260 or control for 24 h, and examined under the microscope. Mouse mature caudal spermatozoa were obtained by dissecting the cauda epididymis of male ICR mice and puncturing them in a dish containing 3 ml PBS to enable sperm release out of the epididymal tissue. The sperm suspension was filtered through a nylon mesh with 50 μm pores, centrifuged at 1000×g for 5 min and re-suspended in a buffer compatible with the experimental procedure.
Sperm cell motility was evaluated using the Computer-Aided Sperm Analysis (CASA). Samples (5 μl) were placed in standard count four chamber slide (Leja, Nieuw-Vennet, Netherlands) and analyzed by CASA device with IVOS software (version 12, Hamilton-Thorne Biosciences), acquiring up to ten sequels, 10 s long, for each sample, using parameters identifying mouse sperm motility. The proportion of hyper-activated ([…]) spermatozoa in each sample was determined using the SORT function of the CASA instrument. HAM was defined by curvilinear velocity (VCL)>90 μm/s, linearity (LIN) b20% and an amplitude of lateral head (ALH)>7 μm.

SW620 CC xenografts = SW620 CC xenografts in nude mice; format: in vivo
Description: All animal experiments were performed according to the guidelines of the Institutional Animal Care and Use Committee of the Bar-Ilan University. Nude mice (Harlan, Israel) were transferred from ad libitum diet to a more strict diet 2 days before inoculation to lower blood glucose levels, and housed one per cage to ensure an even consumption of food. The diet was comprised of 3 g/mouse/day of standard chow, given at the same time every day. The food was consumed within an average time of 2 hours, consequently the mice were kept without food for the next 22 hours until the daily ration. The mice were kept on this diet throughout the experiment. Mice were inoculated with 1.5×10^6 SW620 CC cells and divided randomly into respective experimental groups. In brief, cells were harvested, counted under the microscope, concentrated by centrifugation (5 min at 500G) and re-suspended in Hank's balanced salt solution (Biological Industries, Israel). Before inoculation the cell suspension was mixed with Martial (BD biosciences, USA) in 1:1 ratio. Four days post-inoculation mice were randomized and placed in cages (n=4 per cage). […]
Mice were sacrificed at day 22 of the xenograft experiments, as described above. […] The serum was analyzed immediately using the Cobas 6000-501 chemistry analyzer (Roche Diagnostics, USA) according to the manufacturer's protocols for each assay.

Fer-PARP-1 complex = biological target: T1, Fer-PARP-1 complex (Homo sapiens, UniProt P16591); test: Co-immunoprecipitation of Fer and PARP-1 from SW620 nuclear lysates; format: cell-based
T1 construct: endogenous in cells; host or cells: SW620 cells, nuclear lysates
T1 sequence (P16591 whole entry, one chain of several): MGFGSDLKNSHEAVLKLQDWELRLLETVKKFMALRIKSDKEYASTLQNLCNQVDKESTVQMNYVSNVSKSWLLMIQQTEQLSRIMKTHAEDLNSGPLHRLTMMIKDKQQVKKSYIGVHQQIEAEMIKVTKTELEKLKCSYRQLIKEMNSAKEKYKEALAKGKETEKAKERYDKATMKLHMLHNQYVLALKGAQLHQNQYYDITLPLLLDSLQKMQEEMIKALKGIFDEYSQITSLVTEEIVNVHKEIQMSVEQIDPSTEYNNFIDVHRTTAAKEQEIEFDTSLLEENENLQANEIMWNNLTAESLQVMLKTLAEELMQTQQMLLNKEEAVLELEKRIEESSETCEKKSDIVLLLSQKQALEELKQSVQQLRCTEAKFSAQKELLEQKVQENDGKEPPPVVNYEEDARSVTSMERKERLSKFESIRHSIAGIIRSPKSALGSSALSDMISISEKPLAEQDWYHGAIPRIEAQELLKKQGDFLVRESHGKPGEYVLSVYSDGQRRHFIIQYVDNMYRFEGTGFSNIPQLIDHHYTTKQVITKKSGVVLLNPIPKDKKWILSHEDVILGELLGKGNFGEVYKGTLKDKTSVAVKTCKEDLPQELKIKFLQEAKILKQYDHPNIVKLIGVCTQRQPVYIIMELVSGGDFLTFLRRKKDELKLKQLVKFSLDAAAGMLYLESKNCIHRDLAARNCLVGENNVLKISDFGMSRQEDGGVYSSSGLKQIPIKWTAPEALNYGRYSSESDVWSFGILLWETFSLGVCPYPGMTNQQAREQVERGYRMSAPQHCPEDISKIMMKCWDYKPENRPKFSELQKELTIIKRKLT

CC cells = test: Apoptotic markers in treated CC cells (WB, ICC); format: cell-based, human
Description: WB analyses were carried out as previously described before. In brief, cells were lysed in RIPA buffer mixed with protease inhibitors and separated on SDS-PAGE gel, transferred to PVDF membrane treated with 5% skim milk to exclude non-specific background and incubated with a primary antibody over-night. The membrane was incubated for 1 h with a secondary antibody conjugated to Horseradish Peroxidase (HRP). The protein-antibody complex was visualized using the SuperSignal West Pico Chemiluminescent Substrate (Thermo scientific, USA).
Cells were fixed with 4% paraformaldehyde (30 min) and incubated with Permeabilization Solution containing 0.1% Triton X-100 (Sigma-Aldrich, Israel) in PBS at room temperature for 1 h. Nonspecific binding was blocked with PBS containing 10% fetal bovine serum for 1 h at room temperature. Cells were incubated with specific antibodies diluted 1:100 overnight at 4° C. […] Bound primary antibodies were detected by Alexa Fluor® 488 goat anti-mouse IgG antibody or Alexa Fluor® 594 goat anti-rabbit IgG antibody (Molecular Probes, Invitrogen, U.K.). […] Nonspecific staining, as determined by binding to the secondary antibody only, was negligible. The immunostained slides were examined under the fluorescence microscope AxioimagerZ1 (Zeiss, Germany) or confocal fluorescence microscope (Olympus-FV1000).

[2] = Pharmacokinetic study in mice; format: in vivo; settings: IP
Description: The investigation of PK properties of 0260 was carried out using 30 ICR/CD-1 mice. Intraperitoneal (IP) administration was used, and the solution was administered as 10 ml per 1 kg of animal body weight. At 5, 15, 30, 60, 120, and 240 min after administration (5 mice per each time point) mice were decapitated and blood samples were taken in EDTA-containing tubes. Plasma was prepared from the collected blood by centrifugation and then forwarded for LC-MS/MS analysis. A high sensitivity analytical method was developed for detection of 0260. Analysis was performed in the Agilent 1100 HPLC system including degasser, the binary pump, autosampler, and absorption detector with variable wavelength ranging between 190-600 nm. The HPLC system was coupled with the tandem mass spectrometer API 2000 (Applied Biosystems). The TurboIonSpray ion source was used in the positive ion mode. Data acquisition was performed with Analyst 1.3.1 software.

Structure (SMILES): CC(C)c1ccc(-c2cn3nc(N4CCC(CN5CCN(C)CC5)CC4)sc3n2)cc1 [compound 0260, tartarate salt of 6-(4-isopropyl-phenyl)-2-{4-[(4-methyl-piperazin-1-yl)methyl]piperidin-1-yl}-imidazo [2,1-b][1,3,4]thiadiazole]
- Complex I activity ([1]; SW620, 4 h post treatment): inhibited
- Complex I activity (remaining) ([1]; SW620, 16 h): around 55%
- Complex I activity (remaining) ([1]; SW620, 22 hours): ~35%
- percentage of sperm cells exhibiting progressive motility (mice sperm cells; 5 min): significantly decreased
- progressive motility (mice sperm cells; 30 min): practically reduced to zero
- total motility (mice sperm cells; 30 min): practically reduced to zero
- tumor histopathology (SW620 CC xenografts; SW620 derived tumors dissected at day 22, center and periphery): comprised mostly of dead necrotic and un-vascularized tissue
- decrease in average tumor volume (SW620 CC xenografts; after 22 days of treatment, IP twice a day, restricted diet): 10 fold
- association of Fer with PARP-1 (Fer-PARP-1 complex): dissociated Fer from PARP-1
- apoptotic markers (cleaved caspase 3, cleaved PARP-1, AIF translocation) (CC cells): not observed
- half-life ([2]; ICR/CD-1, mouse, plasma, read-out: T1/2 in the blood): 2.92 h
- volume of distribution [2]: 4.244 L/kg
